Test results reported in ChEMBL document CHEMBL5338704, “Discovery of novel phenylhydrazone-based oxindole-thiolazoles as potent antibacterial agents toward Pseudomonas aeruginosa” (Eur J Med Chem, 2022).
Values after ≈ are worked out from the molar mass of the structure shown. Active and inactive are the calls of the source. The calls are words filed in the database; no cut-off is given here.

What was measured:
[1] = test system: Staphylococcus aureus; assay: Antibacterial activity against methicillin resistant Staphylococcus aureus assessed as inhibition of bacterial growth by micro-broth dilution assay; assay type: functional
[2] = test system: Staphylococcus aureus; assay: Antibacterial activity against Staphylococcus aureus assessed as inhibition of bacterial growth by micro-broth dilution assay; assay type: functional
[3] = test system: Staphylococcus aureus; assay: Antibacterial activity against Staphylococcus aureus ATCC 25923 assessed as inhibition of bacterial growth by micro-broth dilution assay; assay type: functional
[4] = test system: Staphylococcus aureus; assay: Antibacterial activity against Staphylococcus aureus ATCC 29213 assessed as inhibition of bacterial growth by micro-broth dilution assay; assay type: functional
[5] = test system: Enterococcus faecalis; assay: Antibacterial activity against Enterococcus faecalis assessed as inhibition of bacterial growth by micro-broth dilution assay; assay type: functional
[6] = test system: Klebsiella pneumoniae; assay: Antibacterial activity against Klebsiella pneumoniae assessed as inhibition of bacterial growth by micro-broth dilution assay; assay type: functional
[7] = test system: Escherichia coli; assay: Antibacterial activity against Escherichia coli assessed as inhibition of bacterial growth by micro-broth dilution assay; assay type: functional
[8] = test system: Escherichia coli; assay: Antibacterial activity against Escherichia coli ATCC 25922 assessed as inhibition of bacterial growth by micro-broth dilution assay; assay type: functional
[9] = test system: Pseudomonas aeruginosa; assay: Antibacterial activity against Pseudomonas aeruginosa assessed as inhibition of bacterial growth by micro-broth dilution assay; assay type: functional
[10] = test system: Pseudomonas aeruginosa; assay: Antibacterial activity against Pseudomonas aeruginosa ATCC 27853 assessed as inhibition of bacterial growth by micro-broth dilution assay; assay type: functional
[11] = test system: Acinetobacter baumannii; assay: Antibacterial activity against Acinetobacter baumannii assessed as inhibition of bacterial growth by micro-broth dilution assay; assay type: functional
[12] = Hemolytic activity in RBC (unknown origin) assessed as hemolysis; assay type: toxicity, cell-based, Erythrocyte; settings: red blood cells (erythrocytes)
[13] = test system: Pseudomonas aeruginosa; assay: Potency index, ratio of norfloxacin MIC to test compound MIC for antibacterial activity against Pseudomonas aeruginosa assessed as inhibition of bacterial growth by micro-broth dilution assay; assay type: functional
[14] = Selectivity index, ratio of HC50 for hemolytic activity in RBC (unknown origin) assessed as hemolysis to MIC for antibacterial activity against Pseudomonas aeruginosa assessed as inhibition of bacterial growth by micro-broth dilution assay; assay type: toxicity; settings: red blood cells (erythrocytes)
[15] = test system: Pseudomonas aeruginosa; assay: Induction of resistance development in Pseudomonas aeruginosa ATCC 27853 treated over 30 serial passages; assay type: functional, organism-based
[16] = test system: Pseudomonas aeruginosa; assay: Induction of resistance development in Pseudomonas aeruginosa ATCC 27853 assessed as fold increase in MIC treated over 30 serial passages; assay type: functional
[17] = test system: Pseudomonas aeruginosa; assay: Antibacterial activity against Pseudomonas aeruginosa ATCC 27853 assessed as inhibition of bacterial growth measured after 6 hrs; assay type: functional, organism-based
[18] = test system: Pseudomonas aeruginosa; assay: Antibacterial activity against Pseudomonas aeruginosa ATCC 27853 assessed as inhibition of bacterial growth at 1 times MIC measured upto 14 hrs; assay type: functional, organism-based
[19] = test system: Pseudomonas aeruginosa; assay: Inhibition of biofilm formation in Pseudomonas aeruginosa at 0.5 to 8 microg/ml by crystal violet staining based analysis; assay type: functional; settings: dose 0.5-8 µg/ml; at 0.5 to 8 µg/mL
[20] = test system: Pseudomonas aeruginosa; assay: Inhibition of biofilm formation in Pseudomonas aeruginosa by crystal violet staining based analysis; assay type: functional, organism-based; settings: dose 0.5-8 µg/ml
[21] = test system: Pseudomonas aeruginosa; assay: Inhibition of biofilm formation in Pseudomonas aeruginosa assessed as removal of mature biofilm by crystal violet staining based analysis; assay type: functional, organism-based; settings: dose 0.5-8 µg/ml
[22] = test system: Cell membrane; assay: Induction of outer membrane permeabilization in Pseudomonas aeruginosa assessed as increase in fluorescence intensity at 0.5 to 8 microg/ml by NPN-dye based fluorescence analysis; settings: dose 0.5-8 µg/ml
[23] = test system: Cell membrane; assay: Induction of outer membrane permeabilization in Pseudomonas aeruginosa assessed as increase in fluorescence intensity by NPN-dye based fluorescence analysis; assay type: subcellular; settings: dose 0.5-8 µg/ml
[24] = test system: Cell membrane; assay: Induction of cytoplasmic membrane depolarization in Pseudomonas aeruginosa assessed as increase in fluorescence intensity at 0.5 to 4 times MIC by DiSC35 dye based fluorescence analysis; assay type: subcellular; settings: time 30.0 min, TDE = time-dependent effect
[25] = test system: Cell membrane; assay: Induction of cytoplasmic membrane depolarization in Pseudomonas aeruginosa assessed as increase in fluorescence intensity MIC by DiSC35 dye based fluorescence analysis; assay type: subcellular
[26] = test system: Cell membrane; assay: Induction of inner membrane damage in Pseudomonas aeruginosa incubated for 6 hrs by Calcein AM dye based fluorescence based assay; assay type: subcellular
[27] = test system: Cell membrane; assay: Induction of inner membrane damage in Pseudomonas aeruginosa assessed as increase in red fluorescence cells at 0.5 to 8 times MIC incubated for 6 hrs by Calcein AM dye based fluorescence based assay; assay type: subcellular
[28] = test system: Cell membrane; assay: Induction of inner membrane damage in Pseudomonas aeruginosa assessed as decrease in green fluorescence cells at 0.5 to 8 times MIC incubated for 6 hrs by Calcein AM dye based fluorescence based assay; assay type: subcellular
[29] = test system: Cell membrane; assay: Induction of cell membrane damage in Pseudomonas aeruginosa assessed as increase in protein leakage; assay type: subcellular
[30] = test system: Cell membrane; assay: Induction of cell membrane damage in Pseudomonas aeruginosa assessed as increase in nucleic acid leakage at 0.5 to 8 times MIC; assay type: subcellular
[31] = test system: Pseudomonas aeruginosa; assay: Antibacterial activity against Pseudomonas aeruginosa assessed as reduction in LDH activity at 0.5 to 8 times MIC; assay type: functional, organism-based
[32] = test system: Pseudomonas aeruginosa; assay: Antibacterial activity against Pseudomonas aeruginosa assessed as reduction in LDH activity at 8 times MIC; assay type: functional; set-up: scale not given: the % may be the effect or the level left
[33] = test system: Pseudomonas aeruginosa; assay: Antibacterial activity against Pseudomonas aeruginosa assessed as […] inactivation at 0.5 to 8 times MIC by alamar blue staining based analysis; assay type: functional, organism-based
[34] = test system: Pseudomonas aeruginosa; assay: Induction of intracellular ROS accumulation in Pseudomonas aeruginosa assessed increase in fluorescence intensity; assay type: functional, organism-based
[35] = test system: Pseudomonas aeruginosa; assay: Induction of oxidative stress in Pseudomonas aeruginosa assessed as decrease in GSH activity at 0.5 to 8 times MIC by Ellman's assay; assay type: functional, organism-based
[36] = test system: DNA; assay: Binding affinity to Pseudomonas aeruginosa DNA; assay type: nucleic-acid assay
[37] = test system: DNA; assay: Binding affinity to Pseudomonas aeruginosa DNA assessed as reduction in acridine orange-DNA complex formation by competitive binding assay; assay type: nucleic-acid assay

Cn1ccnc1SCC(O)CN1C(=O)/C(=N\Nc2ccc(C(=O)O)cc2)c2ccccc21 (configuration not stated) gave an MIC [1] of 8 µg/mL (≈ 17.7 µM), an MIC [2] of 8 µg/mL (≈ 17.7 µM) and an MIC [3] of 8 µg/mL (≈ 17.7 µM). It also gave an MIC [4] of 16 µg/mL (≈ 35.4 µM), an MIC [5] of 4 µg/mL (≈ 8.86 µM) and an MIC [6] of 2 µg/mL (≈ 4.43 µM). The MIC [7] was 32 µg/mL (≈ 70.9 µM), the MIC [8] was 4 µg/mL (≈ 8.86 µM) and the MIC [9] was 1 µg/mL (≈ 2.21 µM). For the same compound, the MIC [10] was 8 µg/mL (≈ 17.7 µM), the MIC [11] was 32 µg/mL (≈ 70.9 µM) and the HC50 [12] was > 512 µg/mL. For the same compound, the Ratio [13] was 8, the selectivity ratio [14] was > 512 and the Activity [15] was “Active”. For the same compound, the “fold change (FC)” value [16] was 32, the Activity [17] was “Active” and the Activity [18] was “Active”. For the same compound, the “inhibition (INH)” value [19] was 15%, the inhibition [20] was “Dose-Dependent Effect” and the inhibition [21] was “Dose-Dependent Effect”. For the same compound, the Activity [22] was “Active”, the Activity [23] was “Dose-Dependent Effect” and the Activity [24] was “Tde”. The Activity [25] was “Dose-Dependent Effect”, the Activity [26] was “Dose-Dependent Effect” and the Activity [27] was “Active”. The Activity [28] was “Active”, the Activity [29] was “Dose-Dependent Effect” and the Activity [30] was “Active”. The Activity [31] was “Active”, the Activity [32] was <15% and the Activity [33] was “Active”. For the same compound, the Activity [34] was “Dose-Dependent Effect”, the Activity [35] was “Active” and the Activity [36] was “Active”. For the same compound, the Activity [37] was “Active”.
